According to article PMC10675077, “Antimicrobial Properties of New Polyamines Conjugated with Oxygen-Containing Aromatic Functional Groups” (Molecules, 2023):
Values after ≈ are worked out from the molar mass of the structure shown. Marks after values point to notes of the source that are not given here.

Assays:
[1] = Potentiometric titrations in water (protonation constants); format: physicochemical; details: for log β (cumulative protonation constant): calculated as log β = ∑j log KHjL; for n, average number of positive charges at pH 7.4: calculated from protonation constants
Procedure: The potentiometric titrations were carried out at 298.1 ± 0.1 K using NaCl 0.15 M as a supporting electrolyte. The experimental procedure (burette, potentiometer, cell, stirrer, microcomputer, etc.) has been fully described elsewhere. The acquisition of the EMF data was performed with the computer program PASAT [50]. The reference electrode was a Ag/AgCl electrode in a saturated KCl solution. The glass electrode was calibrated as a hydrogen-ion concentration probe via the titration of previously standardised amounts of HCl with CO2-free NaOH solutions and the equivalent point determined using the Gran method, which provides the standard potential, E^θ′, and the ionic product of water (pKw = 13.73(1)).
The computer program […] was used to calculate the protonation constants. The pH range investigated was 2.5–11.0, and the concentration of the ligands ranged from 5 × 10^−4 to 5 × 10^−[…]. The different titration curves for each system (at least two) were treated either as a single set or as separated curves without significant variations in the values of the stability constants. Finally, the sets of data were merged and treated simultaneously to give the final stability constants.

S. aureus BHI = assay: Minimal bactericidal concentration, S. aureus; format: cell-based, Staphylococcus aureus; details: overnight incubation, plating on LB; for MBC: Staphylococcus aureus
Procedure: Once the MIC was known, the samples were prepared as described in the previous section with polyamine concentrations corresponding to the MIC and half, double, and four times its value. After overnight incubation with the microorganisms, 30 μL of a ten-fold dilution of each one was spread in LB (in the case of bacterial strains) or SC-ura (for yeast strains) plates. They were incubated for 20 h at 37 °C (bacteria) or 48 h at 30 °C (yeasts), and the level of growth was determined. […] Experiments were carried out at least three times.

Escherichia coli JM101 = assay: MIC, microdilution in culture medium, E. coli; format: cell-based; details: 20 h, 37 °C, average of at least three experiments; for MIC: Escherichia coli, JM101, read-out: MIC, Bacteria, E. coli JM101
[2] = tested on: Saccharomyces cerevisiae BY4741/YEplac195; assay: microbe, parasite or virus in culture; format: cell-based; details: 24 h, 30 °C, average of at least three experiments; for MIC: Saccharomyces cerevisiae, read-out: MIC, Yeast, BY4741/ YEplac195
[3] = tested on: Saccharomyces cerevisiae BY4741/YEplac195-PDR5; assay: microbe, parasite or virus in culture; format: cell-based; details: 24 h; for MIC: Saccharomyces cerevisiae, read-out: MIC, Yeast, BY4741/ PDR5
BY4741/YEplac195 = assay: Checkerboard titration synergy, BY4741/YEplac195; format: cell-based, Saccharomyces cerevisiae; details: synergistic when FICI ≤0.5
Procedure: (§1) The combined antimicrobial activity of the test compounds with the antibacterial or antifungal control agents was performed under the same conditions used for the MIC determination and following the procedures described by Carton Herrán, Reis de Sá et al. and Zharkova et al.. For each experiment, 16 samples (4 rows × 4 columns) in a total volume of 0.5 mL were prepared in tubes using an array of combinations between the MIC value and 0 μg/mL of the compound to be tested in each row, and between the MIC value and 0 μg/mL of the reference drug in each column. In this way, a variety of mixtures with different concentrations of them alone or in combination was obtained. Briefly, 0.5 mL of a microorganism culture was added to each one of the samples, and after incubation for 24 h with shaking at the appropriate temperature (37 °C or 30 °C), the tubs were visually inspected, and the OD600 was measured. From this information, the fractional inhibitory concentration index (FICI) was calculated according to the formula FIC index = ([A]/[CMI A]) + ([B]/[CMI B]), where [A] and [B] are respective concentrations of tested polyamine and reference drug in their combination effectively inhibiting the growth of bacteria or yeast, and [MIC A] and [MIC B] are the individual MICs of the tested polyamine and reference drug when they are used alone. An interaction is considered synergistic when the FICI value is ≤0.5 [41, 42].
(§2) To confirm the data obtained in the checkerboard assay, 30 μL of a ten-fold dilution of the tubes containing concentrations of half of the MIC of each one of the compounds alone (polyamine to be tested and reference drug) and one fourth of the MIC of each one in combination were also spread in LB or SC-ura plates (according to the microorganism considered in each case) and incubated at 37 °C or 30 °C. The visualisation of these plates was performed after 24 or 48 h, respectively. All these experiments were carried out in triplicate.

E. coli = assay: Checkerboard titration synergy, E. coli; format: cell-based, Escherichia coli; details: synergistic when FICI ≤0.5
Procedure: as §1, §2

[4] = 298 K, 0.15 mol/dm^3 NaCl, error in last figure in parentheses

With c1cc2nc(c1)CNCCN(CCNCc1ccc3c(c1)OCO3)CCNC2 [Compound 5a, 2-(3,6,9-triaza-1(2,6)-pyridinacyclodecaphane-6-yl)-N-(benzo[d][1,3]dioxol-5-ylmethyl)ethan-1-amine] the “Stepwise protonation constant (log K), H2L + H ⇄ H3L” value [1, 4] was 7.30 (1), the “Stepwise protonation constant (log K), L + H ⇄ HL” value [1, 4] was 10.48 (1) and the “Stepwise protonation constant (log K), LH + H ⇄ H2L” value [1, 4] was 8.78 (1). The “log β (cumulative protonation constant)” value ([1]; 298 K, 0.15 mol/dm^3 NaCl) was 26.56, the “n, average number of positive charges at pH 7.4” value (from here on “n, average number”) [1] was 2.4 and the MBC (S. aureus BHI) was 70 µg/mL (≈ 183 µM). For the same molecule, the MIC (Escherichia coli JM101) was 5 µg/mL, the MIC [2] was 60 µg/mL and the MIC [3] was 60 µg/mL. The “Synergy with Amphotericin B” value (BY4741/YEplac195) was “positive results and +”, the “Synergy with Cycloheximide” value (BY4741/YEplac195) was “Sinergy and positive results and +” and the “Synergy with Fluconazole” value (BY4741/YEplac195) was “Sinergy and synergic and +”.

For Oc1ccccc1CNCCN1CCNCc2cccc(n2)CNCC1 [Compound 6a], the “n, average number” value [1] was 1.91, the MBC (S. aureus BHI) was 160 µg/mL (≈ 450 µM) and the MIC (Escherichia coli JM101) was 2.5 µg/mL. For the same molecule, the “Synergy with Ampicillin” value (E. coli) was “no synergy and -”, the “Synergy with Ciprofloxacin” value (E. coli) was “no synergy and -” and the “Synergy with Doxycycline” value (E. coli) was “no synergy and -”. The “Synergy with Gentamicin” value (E. coli) was “no synergy and -”, the MIC [2] was 45 µg/mL and the MIC [3] was 45 µg/mL. The “Synergy with Amphotericin B” value (BY4741/YEplac195) was “positive results and +”, the “Synergy with Cycloheximide” value (BY4741/YEplac195) was “positive results and +” and the “Synergy with Fluconazole” value (BY4741/YEplac195) was “-”.

In the case of Oc1ccc(CNCCN2CCNCc3cccc(n3)CNCC2)cc1 [Compound 7a], the “log β (cumulative protonation constant)” value ([1]; 298 K, 0.15 mol/dm^3 NaCl) is reported as 35.48, the “n, average number” value [1] is reported as 2.4 and the MIC (Escherichia coli JM101) is reported as 13 µg/mL. The “Synergy with Ampicillin” value (E. coli) was “-”, the “Synergy with Ciprofloxacin” value (E. coli) was “-” and the “Synergy with Doxycycline” value (E. coli) was “-”. For the same molecule, the “Synergy with Gentamicin” value (E. coli) was “positive results and +”, the MIC [2] was 295 µg/mL and the MIC [3] was 295 µg/mL.

For c1cc2nc(c1)CNCCN(CCNCc1ccc3c(c1)CCO3)CCNC2 [Compound 8a, 2-(3,6,9-triaza-1(2,6)-pyridinacyclodecaphane-6-yl)-N-((2,3-dihydrobenzofuran-5-yl)methyl)ethan-1-amine], the “Stepwise protonation constant (log K), H2L + H ⇄ H3L” value [1, 4] was 7.296 (4), the “Stepwise protonation constant (log K), L + H ⇄ HL” value [1, 4] was 9.943 (3) and the “Stepwise protonation constant (log K), LH + H ⇄ H2L” value [1, 4] was 8.736 (3). The “log β (cumulative protonation constant)” value ([1]; 298 K, 0.15 mol/dm^3 NaCl) was 26.17, the “n, average number” value [1] was 2.4 and the MBC (S. aureus BHI) was 400 µg/mL (≈ 1050 µM). For the same molecule, the MIC (Escherichia coli JM101) was 15 µg/mL, the “Synergy with Ampicillin” value (E. coli) was “positive results and +” and the “Synergy with Ciprofloxacin” value (E. coli) was “-”. For the same molecule, the “Synergy with Doxycycline” value (E. coli) was “positive results and +”, the “Synergy with Gentamicin” value (E. coli) was “positive results and +” and the MIC [2] was 400 µg/mL. For the same molecule, the MIC [3] was 400 µg/mL.

With “N^1-(benzo[d][1,3]dioxol-5-ylmethyl)-N^3-(2-((2-((3-((benzo[d][1,3]dioxol-5-ylmethyl)amino)propyl)amino)ethyl)(2-((3-(((2,3-dihydrobenzofuran-6-yl)methyl)amino)propyl)amino)ethyl)amino)ethyl)propane-1,3-diamine [Compound 4a]” the “Stepwise protonation constant (log K), H2L + H ⇄ H3L” value [1, 4] was 9.12 (1), the “Stepwise protonation constant (log K), H3L + H ⇄ H4L” value [1, 4] was 8.07 (1) and the “Stepwise protonation constant (log K), H4L + H ⇄ H5L” value [1, 4] was 7.48 (1). For the same molecule, the “Stepwise protonation constant (log K), H5L + H ⇄ H6L” value [1, 4] was 6.35 (2), the “Stepwise protonation constant (log K), L + H ⇄ HL” value [1, 4] was 10.95 (1) and the “Stepwise protonation constant (log K), LH + H ⇄ H2L” value [1, 4] was 9.63 (1). The “log β (cumulative protonation constant)” value ([1]; 298 K, 0.15 mol/dm^3 NaCl) was 51.60, the “n, average number” value [1] was 4.5 and the “Minimal bactericidal concentration (MBC), S. aureus BHI” value (S. aureus BHI) was 8 ^a µg/mL. The “MIC, Bacteria, E. coli JM101” value (Escherichia coli JM101) was 5 µg/mL, the “MIC, Yeast, BY4741/ YEplac195” value [2] was 150 µg/mL and the “MIC, Yeast, BY4741/ PDR5” value ([3]; 30 °C, Pdr5-overexpressing strain) was 150 µg/mL. The “Synergy with Amphotericin B” value (BY4741/YEplac195) was “positive results and +”, the “Synergy with Cycloheximide” value (BY4741/YEplac195) was “Sinergy and positive results and +” and the “Synergy with Fluconazole” value (BY4741/YEplac195) was “Sinergy and synergic and +”.
